Measured values taken from the Biogen ADME set (Fang et al. 2023).
Converted amounts (≈) assume the structure as drawn.

Conditions: for aqueous solubility: pH 6.8

SMILES	MDR1-MDCK efflux ratio	intrinsic clearance, human liver microsomes [mL/min/kg]	intrinsic clearance, rat liver microsomes [mL/min/kg]	aqueous solubility [µg/mL]	fraction unbound, human plasma	fraction unbound, rat plasma
Cn1ncc2c(Oc3cccc(C(C)(C)C)c3)ncnc21	0.48	36.7	465	3.9 (≈ 13.8 µM)		
NCc1cccc(C(=O)N2CCCC2)c1	3.58	≤ 4.74	≤ 10.7	25.4 (≈ 124 µM)		
CC(=O)N[C@H]1CCN(C(=O)N[C@H](C)C(c2ccccc2)c2ccccc2)C1	113	63.6	825			
O=C1Nc2ccccc2O[C@H]2C[C@@H]1N(CC1CC1)C2	0.851	14.5	377	42.1 (≈ 163 µM)		
O=C(CCc1nnc(-c2ccsc2)o1)N1CCCc2cc(F)c(F)cc21	0.866	108	1980	2.08 (≈ 5.54 µM)		
O=C(NCc1ccccn1)c1ccc(F)cc1Cl	0.596	≤ 4.74	≤ 10.7	39.2 (≈ 148 µM)		
Cc1ccsc1-c1nsc(NC(=O)CN(C)C)n1	0.874	≤ 4.74	548			
Cc1nn(C)c(C)c1CCC(=O)N1CCN(C)Cc2ccccc21	45.8	74.2	279	53 (≈ 162 µM)		
O=C(O)c1ccc(CN2CC[C@H](c3nc4cc(Cl)ccc4o3)C2)cc1	1.11	≤ 4.74	17.8	32.4 (≈ 90.8 µM)		
N#Cc1cccc(CN2CCOC[C@H](O)C2)c1		7.9	12	21.1 (≈ 90.9 µM)		
Cn1c(SCOCc2ccccc2)nnc1C1CC1	0.57	27.1	271			
O=C(Nc1cccc2ncccc12)[C@H]1CCCN(S(=O)(=O)c2cccs2)C1		35.8	614			
Cc1nc(CC2CCN(S(=O)(=O)c3c(C)noc3C)CC2)cc(NC2CCCC2)n1	11.4	249	2420	60.5 (≈ 139 µM)		
Cn1cccc(C(=O)NCc2nc(C(C)(C)C)no2)c1=O	1.44	≤ 4.74	137			
CCc1noc(COc2c(C)ccnc2Cl)n1				23.3 (≈ 91.8 µM)		
COc1cccc(C)c1C(=O)N[C@H](CO)CCSC	1.7	32.5	741			
CS(=O)(=O)c1ccc(-c2cnc(NCc3ccco3)n3cnnc23)cc1	14.8	15.7	31.2	36.4 (≈ 98.5 µM)		
O=C(NCC(F)(F)F)c1ccncc1				30.7 (≈ 150 µM)		
O=C(NO)c1cnc(NC2(c3ccccc3)CC2)nc1		≤ 4.74	17.4			
Cc1csc(CCNc2ncccc2C#N)n1		73	876	32.1 (≈ 131 µM)		

SMILES	MDR1-MDCK efflux ratio	intrinsic clearance, human liver microsomes [mL/min/kg]	intrinsic clearance, rat liver microsomes [mL/min/kg]	aqueous solubility [µg/mL]	fraction unbound, human plasma	fraction unbound, rat plasma
COc1ccc(C2(NCc3cnn(-c4ccccc4)c3)CCCC2)cc1		81.5	976	57.4 (≈ 165 µM)		
COc1cc(CN2C[C@H]3CCc4c(nc(C)[nH]c4=O)[C@H]3C2)cc(OC)c1OC	47.5	≤ 4.74	≤ 10.7			
Cc1cc(C(=O)N2CCOC(C)(C)C2)cc(C)c1OCc1cccnc1	2.18	270	2180	48.9 (≈ 138 µM)		
CC1(C)[C@@H]2C[C@H]1[C@@]1(O)[C@@H](C2)Oc2c(ccc(O)c2C(=O)NCCc2ccccn2)[C@@H]1O		555	910			
N#Cc1cc(-c2ccccc2)sc1N				3 (≈ 15 µM)		
Cn1cc(-c2nnc(NCc3ccc4ccccc4c3)o2)cn1	0.701	7.14	46.3	11.2 (≈ 36.8 µM)		
CCn1c(CN2CCCCCC2)nc2ccccc2c1=O	0.561	25.7	2240			
CN(C)C(=O)C1(Cc2ccccc2-c2ccccc2)CCN(C(=O)c2cnn(C)c2)CC1	25.1	464	1250		0.11	0.14
CCCN1CCn2nc(-c3nc4cc(OC)ccc4[nH]3)cc2C1	0.825	≤ 4.74	280	40.1 (≈ 129 µM)		
CCOC1CCN(c2ccnc(C(=O)NCc3ccccc3)c2)CC1	0.488	18.3	390			
c1ccc(Nc2nc(N3CCOCC3)nc(N3CCOCC3)n2)cc1	0.502	22.8	48.3			
NC[C@H]1CC[C@@H](C(=O)Nc2ccc3[nH]ncc3c2)O1	1.14	17.7			0.959	
CN(C)c1ccc(-c2ccc(COCc3cccs3)cc2)nn1	0.483	76.5	410	1.35 (≈ 4.15 µM)		
Cc1cccc(-c2nc(CN(Cc3cnn(C)c3)C(C)C)c(C)o2)c1	1.24	62.6	4560	21.4 (≈ 63.4 µM)		
NC(=O)CN1CCC(CCc2ccccc2)CC1		≤ 4.74	461	41.3 (≈ 168 µM)		
Cc1ccc(CN(C)C(=O)c2cn(Cc3ccccc3F)nn2)cc1	0.764	64.8	1090	11.4 (≈ 33.7 µM)		
Nc1ccc(N2C(=O)CCCC2=O)cc1				28 (≈ 137 µM)		
Cc1cc(C)nc(SCC(=O)N2c3ccccc3C(C)(c3ccc(Cl)cc3)CC2(C)C)n1 (stereo not drawn)		1040	2110			
CCn1c(=O)oc2cc(NC(=O)c3ccc(C(C)(C)C)cc3)ccc21	0.34				0.0162	0.0151
Oc1ccc(CN2CCN(c3cccc(Cl)c3)CC2)cc1	0.451	33.6	90	2.2 (≈ 7.27 µM)		

SMILES	MDR1-MDCK efflux ratio	intrinsic clearance, human liver microsomes [mL/min/kg]	intrinsic clearance, rat liver microsomes [mL/min/kg]	aqueous solubility [µg/mL]	fraction unbound, human plasma	fraction unbound, rat plasma
CC1(C)CCCN1C(=O)c1c(F)cc(C#N)cc1F	0.663	≤ 4.74	69.7			
CCOc1cccc(-c2cccc(N)n2)c1	0.559	237	556			
O=C(c1ccc(Oc2ccccc2)cc1Cl)c1c[nH]c2ncnc(N[C@@H]3CC[C@@H](CO)OC3)c12	6.8	≤ 4.74	≤ 10.7		0.00341	0.00506
CCOC(=O)N1CCc2cc(NC(=O)c3oc(C)cc3C)ccc21		11.5	118			
O=C(CN1CCCc2ccc(F)cc21)N1CCNC1=O	0.896	≤ 4.74	61.3	45.1 (≈ 163 µM)		
CC(C)CNc1nnc(SCc2ccncc2)s1	1.03	30.9	631	48 (≈ 171 µM)		
CCc1cccc(C)c1NC(=O)c1ccc(C)o1	0.661	≤ 4.74	172			
CN(C(=O)c1cccc(C(=O)O)c1)c1ccccc1		≤ 4.74	≤ 10.7			
c1ccc(CCn2cnc3c2CCN(c2ncccn2)C3)cc1	0.802	206	2510	41 (≈ 134 µM)		
Cc1cc(C)c2ccc(C(=O)N3CCN(c4ncc[nH]c4=O)CC3)cc2n1	65.9	≤ 4.74	53.4			
CCCc1nn(CCCN2CCCCC2)c(=O)o1	0.542	13.6	1600			
CCCCNc1nc2c(cc1C#N)CCC2		226	2310			
CC(C)CN(c1ncnc2c1cnn2C)C1CC1	0.731	50.5	345	29.6 (≈ 121 µM)		
Cn1ccc(CN2C(=O)c3ccccc3C2=O)cc1=O	1.9	≤ 4.74	12.1	50 (≈ 187 µM)		
O=C(Nc1ccccc1)c1c([O-])n(-c2ccccc2)n[n+]1Cc1ccccc1	0.868			0.2 (≈ 0.54 µM)		
CCOc1ccc(Nc2ncccc2C#N)cc1		99.6	319	9.23 (≈ 38.6 µM)		
Cc1ccc(CCNC(=O)c2ccncc2)o1	0.705	≤ 4.74	52.3	29.3 (≈ 127 µM)		
Cc1cccc(-c2nc(C34CCC(C(N)=O)(CC3)CC4)[nH]c2-c2ccc3c(c2)OCO3)n1					0.105	0.0162
Cn1ccnc1C1CCN(C(=O)COCc2nc3cc(F)ccc3[nH]2)CC1		≤ 4.74	61.5			
Cc1nc2cc(C(=O)NC34CCCC3NCC4)ccc2c(=O)[nH]1 (stereo not drawn)	0.754	≤ 4.74			0.735	
